In patent publication US20260055103A1, “2,3,4,9-TETRAHYDRO-1H-PYRIDO[3,4-B]INDOLE DERIVATIVES AS ESTROGEN RECEPTOR MODULATORS FOR THE TREATMENT OF CANCER” (Olema Pharmaceuticals, Inc., priority 2022, published 2026):

Each molecule was assayed against T1, estrogen receptor (Homo sapiens, UniProt P03372) (assay: Alkaline phosphatase (AP) assay in ECC-1 cells, agonist mode (no E2) and antagonist mode (500 pM E2)). Details: 3 days, AP activity normalized to 500 pM E2 alone, agonist mode without E2, antagonist mode with 500 pM E2.
T1 construct: endogenous in cells; host or cells: ECC-1 cells
T1 sequence (P03372 1-595): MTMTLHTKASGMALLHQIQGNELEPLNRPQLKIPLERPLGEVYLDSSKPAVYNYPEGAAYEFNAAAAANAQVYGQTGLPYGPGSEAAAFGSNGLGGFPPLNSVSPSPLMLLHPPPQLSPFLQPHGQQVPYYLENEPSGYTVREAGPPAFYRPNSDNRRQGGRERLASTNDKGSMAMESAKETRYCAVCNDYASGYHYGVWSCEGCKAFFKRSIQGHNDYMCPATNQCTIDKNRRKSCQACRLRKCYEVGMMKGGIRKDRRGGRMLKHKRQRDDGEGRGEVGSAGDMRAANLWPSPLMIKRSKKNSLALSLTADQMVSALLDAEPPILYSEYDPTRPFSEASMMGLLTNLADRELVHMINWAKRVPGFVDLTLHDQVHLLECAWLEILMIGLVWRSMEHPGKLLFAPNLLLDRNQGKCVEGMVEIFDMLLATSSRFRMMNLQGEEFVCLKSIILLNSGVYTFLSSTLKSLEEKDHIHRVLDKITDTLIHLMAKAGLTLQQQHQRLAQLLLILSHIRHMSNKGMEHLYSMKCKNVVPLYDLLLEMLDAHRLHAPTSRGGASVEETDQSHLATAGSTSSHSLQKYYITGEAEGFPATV
Type: cell-based
Method in brief: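 ECC-1 cells in hormone-depleted medium treated 3 days with compound alone (agonist mode) or with 500 pM E2 (antagonist mode). Alkaline phosphatase read by p-nitrophenyl phosphate hydrolysis, 40 min at 42° C, A405. Activity normalized to 500 pM E2 alone.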
In the case of `C[C@@H]1Cc2c([nH]c3ccccc23)[C@@H](c2cnc(N[C@@H]3CCCN(CCCF)C3)s2)N1CC(F)(F)CO` [Example I-67, 2,2-difluoro-3-((1S,3R)-1-(2-(((R)-1-(3-fluoropropyl)piperidin-3-yl)amino)thiazol-5-yl)-3-methyl-1,3,4,9-tetrahydro-2H-pyrido[3,4-b]indol-2-yl)propan-1-ol], the “Activity (estrogen receptor modulation, agonism and antagonism)” value (“Activity” below) is reported as “+ (estrogen receptor agonism having (i) at least 80% increase in the E2-normalized signal in the AP assay (agonist mode) and (ii) no more than 80% reduction in the E2-normalized signal in the AP assay (antagonist mode))”.
In the case of `C[C@@H]1Cc2c([nH]c3ccccc23)[C@@H](c2ccc(C3CCN(CCF)CC3)s2)N1CC(C)(C)F` [Example I-68, (1S,3R)-1-[5-[1-(2-fluoroethyl)-4-piperidyl]-2-thienyl]-2-(2-fluoro-2-methyl-propyl)-3-methyl-1,3,4,9-tetrahydropyrido[3,4-b]indole], the “Activity” value is reported as “++ (estrogen receptor antagonism having (i) between 10% and 80% increase in the E2-normalized signal in the AP assay (agonist mode) and (ii) between 10% and 80% reduction in the E2-normalized signal in the AP assay (antagonist mode))”.
For `CCN1CCC(c2ccc([C@@H]3c4[nH]c5ccccc5c4C[C@@H](C)N3CC(C)(C)F)s2)CC1` [Example I-69, (1S,3R)-1-(5-(1-ethylpiperidin-4-yl)thiophen-2-yl)-2-(2-fluoro-2-methylpropyl)-3-methyl-2,3,4,9-tetrahydro-1H-pyrido[3,4-b]indole], the “Activity” value was “++ (estrogen receptor antagonism having (i) between 10% and 80% increase in the E2-normalized signal in the AP assay (agonist mode) and (ii) between 10% and 80% reduction in the E2-normalized signal in the AP assay (antagonist mode))”.
With `CCCN1CCC(c2ccc([C@@H]3c4[nH]c5ccccc5c4C[C@@H](C)N3CC(C)(C)F)s2)CC1` [Example I-70, (1S,3R)-2-(2-fluoro-2-methyl-propyl)-3-methyl-1-[5-(1-propyl-4-piperidyl)-2-thienyl]-1,3,4,9-tetrahydropyrido[3,4-b]indole] the “Activity” value was “+ (estrogen receptor agonism having (i) at least 80% increase in the E2-normalized signal in the AP assay (agonist mode) and (ii) no more than 80% reduction in the E2-normalized signal in the AP assay (antagonist mode))”.
With `C[C@@H]1Cc2c([nH]c3ccccc23)[C@@H](c2ccc(C3CCN(CCCF)CC3)s2)N1CC(C)(C)F` [Example I-71, (1S,3R)-2-(2-fluoro-2-methyl-propyl)-1-[5-[1-(3-fluoropropyl)-4-piperidyl]-2-thienyl]-3-methyl-1,3,4,9-tetrahydropyrido[3,4-b]indole] the “Activity” value was “+ (estrogen receptor agonism having (i) at least 80% increase in the E2-normalized signal in the AP assay (agonist mode) and (ii) no more than 80% reduction in the E2-normalized signal in the AP assay (antagonist mode))”.
In the case of `C[C@@H]1Cc2c([nH]c3ccccc23)[C@@H](c2cnc(N[C@@H]3CN(CCCF)C[C@@H]3F)s2)N1CC(F)(F)CO` [Example I-72, 2,2-difluoro-3-[(1S,3R)-1-[2-[[(3R,4S)-4-fluoro-1-(3-fluoropropyl)pyrrolidin-3-yl]amino]thiazol-5-yl]-3-methyl-1,3,4,9-tetrahydropyrido[3,4-b]indol-2-yl]propan-1-ol], the “Activity” value is reported as “++ (estrogen receptor antagonism having (i) between 10% and 80% increase in the E2-normalized signal in the AP assay (agonist mode) and (ii) between 10% and 80% reduction in the E2-normalized signal in the AP assay (antagonist mode))”.
`C[C@@H]1Cc2c([nH]c3ccccc23)[C@@H](c2cnc(N[C@H]3CCN(CCCF)C3)s2)N1CC(F)(F)CO` [Example I-73, 2,2-difluoro-3-[(1S,3R)-1-[2-[[(3S)-1-(3-fluoropropyl)pyrrolidin-3-yl]amino]thiazol-5-yl]-3-methyl-1,3,4,9-tetrahydropyrido[3,4-b]indol-2-yl]propan-1-ol] was tested, and the “Activity” value was “++ (estrogen receptor antagonism having (i) between 10% and 80% increase in the E2-normalized signal in the AP assay (agonist mode) and (ii) between 10% and 80% reduction in the E2-normalized signal in the AP assay (antagonist mode))”.
With `CCN1CCN(c2ccc([C@@H]3c4[nH]c5ccccc5c4C[C@@H](C)N3CC(C)(C)F)s2)CC1` [Example I-74, (1S,3R)-1-[5-(4-ethylpiperazin-1-yl)-2-thienyl]-2-(2-fluoro-2-methyl-propyl)-3-methyl-1,3,4,9-tetrahydropyrido[3,4-b]indole] the “Activity” value was “+ (estrogen receptor agonism having (i) at least 80% increase in the E2-normalized signal in the AP assay (agonist mode) and (ii) no more than 80% reduction in the E2-normalized signal in the AP assay (antagonist mode))”.
